One series concerns MCF-7. Nature of the series: MTT cytotoxicity assay, MCF-7 breast cancer cells. The series is classed as cell-based, human. The following applies: IC50 ± SD. As to the method: (§1) Human cell lines A549 (lung cancer, ATCC No. CCL-185), MRC-5 (nontumoral lung, ATCC No. CCL-171), MCF-7 (breast cancer, ATCC No. HTB-22), and A2780cis (cisplatin-resistant ovarian cancer, ECACC No. 93112517) were used to evaluate the cytotoxic activity of the metal complexes. The A549 and MRC-5 cell lines were cultured in DMEM (Dulbecco’s Modified Eagle’s Medium), while the MCF-7 and A2780cis cell lines were maintained in RPMI-1640 (Roswell Park Memorial Institute) medium. Both media were supplemented with 10% fetal bovine serum (FBS), penicillin (100 U/mL), streptomycin ([…]), and L-glutamine (2 mM). The cells were grown in monolayers using disposable 25 cm^2 flasks and incubated at 37 °C in a 5% CO2 atmosphere.
(§2) The cytotoxicity of the compounds was determined using the MTT colorimetric assay (3-(4,5-dimethylthiazol-2-yl)-2,5-diphenyl tetrazolium bromide), as described by Mosmann. The cells were trypsinized for counting and concentration adjustment and then seeded in 96-well plates (1.5 × 10^4 cells/well). The plates were incubated at 37 °C in a 5% CO2 atmosphere for 24 h to allow cell adhesion. […] Absorbance was measured at 570 nm using a Varioskan LUX Multimode Microplate Reader (VL000D0). […]
Background: Tetrazolium assays rely on reduction of a dye to a coloured formazan, in cell work by metabolically active cells.

The subject of the next series is A549. Nature of the series: MTT cytotoxicity assay, A549 lung cancer cells. The series is classed as cell-based, human. The note with it: IC50 ± SD. As to the method:
as §1, §2

For the next series, the system named is A2780cis. Nature of the series: MTT cytotoxicity assay, A2780cis cisplatin-resistant ovarian cancer cells. In kind it is cell-based, human. The following applies: 48 h, IC50 ± SD. On the procedure: as §1, §2
The test system of the next series is MRC-5. As to the kind of experiment: MTT cytotoxicity assay, MRC-5 noncancerous lung cells. The following applies: IC50 ± SD. In kind it is cell-based, human. As to the method: as §1, §2
A short description of series [1]: Molar conductance in DMSO over 48 h. In kind it is physicochemical. The following applies: 10^-3 M in DMSO, room temperature. On the procedure:
DMSO solutions (10^–3 M) of the Hapmc and metal(II) complexes were subjected to molar conductance measurements at room temperature over 48 h, and the observed values are presented in Table S2.
The solvents and reagents were purchased from commercial sources and used without purification. The FT-IR spectra of the compounds were obtained from KBr pellets, using an FT-IR Varian 640 spectrometer in the range of 4000–400 cm^–1. Electrospray ionization mass spectrometry analysis (ESI-MS) was performed on an AB Sciex Triple TOF 5600+ mass spectrometer in positive mode, with a voltage of 5500 V and source temperature of 200 °C. ^1H nuclear magnetic resonance spectra were collected on a Varian Mercury Plus (600 MHz), with TMS as internal reference and DMSO-d 6 as solvent. Elemental analysis of CHN was performed with a PerkinElmer/Series II 2400 analyzer. Electronic spectra were obtained using a UV–vis–NIR Varian Cary 5000 spectrophotometer using 20 μM or 1 mM solutions prepared in methanol or DMF. The molar conductance of a 10^–3 M solution of ligand and metal complexes in DMSO was measured at room temperature using a Quimis Q405 M conduct meter.

Molecules are shown by their SMILES.

As to `N.N.[Cl][Pt][Cl]` [Cisplatin, reference compound], the IC50 with MCF-7 (48 h) was 14 µM; with A549 (48 h) it was 11.5 µM; in the series with A2780cis, 37 µM; with MRC-5 (48 h) it was 29.1 µM.

For `COC(=O)N/N=C(\C)c1ccccn1` [Hapmc, 2-acetylpyridine-methylcarbazate], the IC50 was > 100 µM in the series on MCF-7 (Homo sapiens, MCF7, 48 h); > 100 µM with A549 (Homo sapiens, A549, 48 h); > 100 µM with A2780cis (Homo sapiens, A2780cis); > 100 µM in the series on MRC-5 (Homo sapiens, MRC5, 48 h). In series [1] (0 hours), the “Molar conductivity, 0 hours” value is on record as 1.90 Ω -1.cm2.mol-1. Besides, the “Molar conductivity, 24 hours” value in series [1] (24 hours) was 2.37 Ω -1.cm2.mol-1. The “Molar conductivity, 48 hours” value in series [1] (48 hours) was 2.48 Ω -1.cm2.mol-1.

The IC50 is the concentration that gives 50% inhibition. Low values mean inhibition by little substance, high ones a need for much substance.
